This is an account of results in patent publication US7569351B2 (Oncotherapy Science, Inc., priority 2000, dated 2009).

Data set [1] has as its system p53AIP1. As to the kind of experiment: Immunocytochemical staining of endogenous p53AIP1 in mitochondria. It is filed as cell-based, human. The settings on record: MCF7; STS 0.5 μM 24 hr, TNFα 10 ng/ml 48 hr. From the text: (§1) FIG. 17 presents photographs showing the expression of p53AIP1 protein in the mitochondria, and the function of p53AIP1 protein in apoptosis induced by UV or STS. […] Twenty-four hours after STS and UV damage or 48 hr after TNFα damage, p53AIP1 protein and mitochondria in the cells were stained with FITC-conjugated rabbit anti-p53AIP1 antibody and Mito Tracker Red (CMXRos), respectively. The nuclei was visualized by DAPI staining. […] MCF7 cells were transfected with AS or sense oligonucleotides (SE) (1 μM) using Lipofectin reagent (GIBCO-BRL) for 4 hr, and then the cells were damaged by UV irradiation (50 J/m^2). Thirty-six hours after transfection, p53AIP1 expression was evaluated by Western blotting.
Incubation times and radiation doses were as follows: for RT-PCR, STS treatment was performed for 24 hr and TNFα and UV, for 48 hr; for Western blotting, STS, for 36 hr and TNFα and UV, for 48 hr; for FACS and TUNEL assays, STS (0.5 μM) and UV (50 J/m^2) for 36 hr and TNFα (10 ng/ml), for 72 hr; and for immunocytochemical analysis, STS (0.5 μM) and UV (50 J/m^2), for 24 hr and TNFα (10 ng/ml) for 48 hr.

The test system of data set [2] is p53AIP1. As to the kind of experiment: Antisense inhibition of p53AIP1 expression (RT-PCR). It is filed as cell-based, human. Conditions: U373MG, 1 μM oligonucleotide 4 hr, then Ad-p53, 48 hr.
The test system of another data set is U373MG cells. As to the kind of experiment: Antisense inhibition of p53-induced apoptosis (FACS). It is filed as cell-based, human. Conditions: 1 μM oligonucleotide 4 hr, then Ad-p53, 48 hr.
The next data set relates to p21^Waf1. As to the kind of experiment: Induction of p21Waf1 by DNA damage in NHDF (RT-PCR). Conditions: adriamycin 0.2 μg/ml. It is filed as cell-based, human. As to the method:
(§2) Expression of the GAPDH gene was determined as a quantity control. p53AIP1 and p21/WAF1 expression induced by γ irradiation (IR) and adriamycin treatment (ADR) is analyzed.
(§3) DNA-damaging treatment was performed as follows.
(§4) Cells were inoculated 24 hr before treatment, and grown to 60% to 70% confluency. NHDF and SW480 cells were continuously treated with adriamycin (doxorubicin) at a concentration of 0.2 μg/ml or were treated with γ-ray irradiation at about 1 Gy/min (14 Gy).

Data set [3] deals with p53AIP1. Kind of data set: Induction of endogenous p53AIP1 by DNA damage in NHDF (RT-PCR). It is filed as cell-based, human. The settings on record: adriamycin 0.2 μg/ml. On the procedure:
as §2, §3, §4

The test system of data set [4] is mitochondrial ΔΨm. Kind of data set: Mitochondrial ΔΨm by Rhodamine 123 in HeLa mock parental cells. It is filed as cell-based, human. The settings on record: MOI 100 pfu/cell, 60 hr after infection. On the procedure: (§5) The cells were labeled with Rhodamine 123 at 60 hr after infection, and fluorescence was analyzed by FACScan. The horizontal axis indicates 10^0 at left end, 10^4 at right end, and 10^2 at center, respectively.
(§6) Next, the mitochondrial ΔΨm itself was analyzed. Detection of mitochondrial membrane potential was performed as follows. […] Sixty hours after infection, adherent and floating cells were collected by trypisinization, and washed twice with cold PBS. Rhodamine 123 (10 nM) in PBS was added to the cells, and were incubated for 30 min at 37° C. Fluorescence was measured by flow cytometry.

The next data set relates to MCF7 cells. Kind of data set: Antisense effect on apoptosis in MCF7 (FACS sub-G1). It is filed as cell-based, human. The settings on record: MCF7, AS 1 μM. On the procedure:
MCF7 cells were transfected with AS or SE (1 μM) using Lipofectin reagent (GIBCO-BRL) for 4 hr, and treated with UV irradiation, STS or TNFα.
Cells were plated 24 hr before apoptosis-inducing treatment, and grown to 60%-70% confluency at the time of treatment. To test whether the expression of p53AIP1 in response to apoptotic stresses, MCF7 (breast carcinoma) cells were continuously incubated with staurosporine or TNFα, or were treated with UV at given dosages (J/m^2) using a UV cross-linker (Stratagene). Floating and adherent cells were collected, and subjected to analyses by Western blotting, FACS, and RT-PCR analysis. For FACS analysis, adherent and detached cells were combined and fixed with 75% ethanol at 4° C. After rinsed twice with PBS, cells were incubated at 37° C. for 30 min with 1 ml PBS containing boiled RNase. Cells were then stained in 1 ml PBS containing 10 μg of propidium iodide. The cells (2×10^4 or more) were analyzed in a flow cytometer (FACScalibur; Becton Dickinson) to determine the percentage of sub-G1 nuclei in the cell population. In situ terminal transferase-mediated dUTP nick end-labeling (TUNEL) was performed using Apoptag Direct (Oncor) according to the manufacturer's instructions.
Next, the intracellular localization of endogenous p53AIP1 during apoptosis through different-pathways was identified. In human breast carcinoma cells MCF7 that were not exposed to any apoptosis stimulator, the expression of p53AIP1 was not detected. […] No staining of p53AIP1 was observed after TNFα treatment (FIG. 17). To confirm the involvement of p53AIP1 in apoptotic processes, experiments using an antisense oligonucleotide (AS) corresponding to the p53AIP1 gene were performed. To inhibit endogenous p53AIP1 expression, antisense oligonucleotide (AS2: […]/SEQ ID NO: 30) and a control sense oligonucleotides (SE2: […]/SEQ ID NO: 31) were designed based on the sequence of the p53AIP1 gene, and then purified by HPLC. […] After 36 hr from the treatment, apoptotic cells were analyzed by FACS and TUNEL analysis.

Data set [5] deals with p53AIP1. As to the kind of experiment: Antisense inhibition of p53AIP1 expression in MCF7 (Western blotting). The settings on record: MCF7, AS 1 μM, after UV irradiation, compared with sense oligonucleotide. It is filed as cell-based, human.
Source text: as §1
Next, the intracellular localization of endogenous p53AIP1 during apoptosis through different-pathways was identified. In human breast carcinoma cells MCF7 that were not exposed to any apoptosis stimulator, the expression of p53AIP1 was not detected. […] No staining of p53AIP1 was observed after TNFα treatment (FIG. 17). To confirm the involvement of p53AIP1 in apoptotic processes, experiments using an antisense oligonucleotide (AS) corresponding to the p53AIP1 gene were performed. […] After 36 hr from the treatment, apoptotic cells were analyzed by FACS and TUNEL analysis.
(A western blot detects proteins with antibodies after separation by electrophoresis.)

In data set [6] the test system is p53AIP1. As to the kind of experiment: p53AIP1 expression after apoptosis stimulators (Western blotting, RT-PCR). It is filed as cell-based, human. Conditions: MCF7 cells. As to the method: FIG. 15 presents photographs showing the expression of p53AIP1 through different apoptotic pathways, which was detected by Western blotting (A) and semiquantitative RT-PCR (B) analyses. MCF7 cells were collected at 36 hr after STS damage and 48 hr after UV or TNFα damage for Western blotting analysis, or 24 hr after STS damage, and 48 hr after UV or TNFα damage for RT-PCR. Expression of β-actin or β2MG serves as a control.
Cells were plated 24 hr before apoptosis-inducing treatment, and grown to 60%-70% confluency at the time of treatment. To test whether the expression of p53AIP1 in response to apoptotic stresses, MCF7 (breast carcinoma) cells were continuously incubated with staurosporine or TNFα, or were treated with UV at given dosages (J/m^2) using a UV cross-linker (Stratagene). […] The cells (2×10^4 or more) were analyzed in a flow cytometer (FACScalibur; Becton Dickinson) to determine the percentage of sub-G1 nuclei in the cell population. […]
For RT-PCR analysis, total RNA was first isolated from cells using the RNeasy spin column kit (QIAGEN) according to the manufacturer's instructions. cDNAs were synthesized from 5 μg of total RNA using SuperScript Pre-amplification System (GIBCO-BRL). The exponential phase was determined for RT-PCR within 15 cycles to 30 cycles to allow semiquantitative comparisons among cDNAs derived from identical reactants. […]

For a further data set, the system named is T98G cells. Kind of data set: TUNEL analysis after transfection of expression vectors. It is filed as cell-based, human. Conditions: harvested 48 hr after transfection. On the procedure:
To investigate whether introduction of exogenous p53AIP1 could indeed induce apoptotic cell death, in situ terminal transferase-mediated dUTP nick end-labeling (TUNEL) analysis was performed. […] TUNEL analysis was performed using Apotag Direct ([…]) according to the manufacturer's instructions. […] DNA fragments were evaluated using the ApoAlert LM-PCR ladder assay kit (Clontech) according to the manufacturer's instructions.

The test system of data set [7] is mitochondrial ΔΨm. As to the kind of experiment: Mitochondrial ΔΨm by Rhodamine 123 in HeLa cells overexpressing bcl-2. It is filed as cell-based, human. The settings on record: both HeLa cell lines overexpressing bcl-2, 60 hr after infection. On the procedure:
as §5, §6

Data set [8] deals with mitochondrial ΔΨm. As to the kind of experiment: Mitochondrial membrane potential by Mitotracker Red CMXRos. It is filed as cell-based. Conditions: 24 hr after transfection. On the procedure:
To evaluate the mitochondrial membrane potential, cells were incubated in culture media containing […] Mitotracker Red CMXRos (Molecular Probes) at 37° C. for 30 min, and then fixed to be labeled with a longer wavelength (579 nm to 599 nm) fluorescence emission.

The next data set relates to WTp53 cancer cell lines. Kind of data set: Anti-tumor effect in vitro, nine cancer cell lines containing wild-type p53. It is filed as cell-based, human. On the procedure: Apoptotic cells were analyzed by FACScan at 96 hr after infection.

TNFα: the “staining of p53AIP1 in the mitochondria” value in the data set with p53AIP1 [1] is recorded as “No staining”.

For the molecule “GATCCCATCCAGGGGA (listed as DNA, chemistry not given here) [AS1]”, the “inhibition of the induction of p53AIP1 expression” value in the data set on p53AIP1 [2] is reported as “significantly inhibited”. Moreover, the “inhibition of the induction of p53-induced apoptosis” value in the data set on U373MG cells is on record as “significantly inhibited”.

As to `COc1cccc2c1C(=O)c1c(O)c3c(c(O)c1C2=O)C[C@@](O)(C(=O)CO)C[C@@H]3O[C@H]1C[C@H](N)[C@H](O)[C@H](C)O1` [adriamycin, adriamycin (doxorubicin)], the “time of maximum p21^Waf1 expression” value with p21^Waf1 is 6 h. Also, the “time of maximum levels of p53AIP1” value in the data set on p53AIP1 [3] is 24 h.

For “LacZ: exogenous LacZ expressed from Ad-LacZ, control [reference compound]”, the “down-regulation of mitochondrial ΔΨm” value with mitochondrial ΔΨm [4] is listed as “did not”.

As to “GGAGGCAGGTGAGGAG (listed as DNA, chemistry not given here) [SE1, reference compound]”, the “inhibition of the induction of p53AIP1 expression” value with p53AIP1 [2] was “not”. Also, in the data set on U373MG cells, the “inhibition of the induction of p53-induced apoptosis” value is listed as “not”.

For “TCCCCTGGATGGGATC (chemistry not given here) [AS2]”, the “inhibition of cell death induced by TNFα” value in the data set with MCF7 cells (TNFα 10 ng/ml) is listed as “did not inhibit”. In the data set on MCF7 cells (reduced from 33%, after UV irradiation), the “apoptotic (sub-G1) cell population, second pair” value was 16%. The “apoptotic (sub-G1) cell population, first pair” value in the data set on MCF7 cells (reduced from 37%, stimulus not clearly printed) is recorded as 28%. Moreover, in the data set on p53AIP1 [5], the “reduction in the p53AIP1 expression level” value is recorded as 50%.

In the case of `CN[C@@H]1C[C@H]2O[C@@](C)([C@@H]1OC)n1c3ccccc3c3c4c(c5c6ccccc6n2c5c31)C(=O)NC4` [STS, staurosporine], in the data set on p53AIP1 [1], the “staining of p53AIP1 in the mitochondria” value is “intense staining”. Also, the “expression of p53AIP1 during apoptotic induction” value in the data set on p53AIP1 [6] is on record as “increased significantly in a dose-dependent manner”.

B1: p53AIP1α: p53-dependent apoptosis-associated protein, 124 amino acids, SEQ ID NO: 2, expressed from vector (protein, listed as Homo sapiens)
chain: MGSSSEASFRSAQASCSGARRQGLGRGDQNLSVMPPNGRAQTHTPGWVSDPLVLGAQVHGGCRGIEALSVSSGSWSSATVWILTGLGLGLSRPFLPGATVLRDRPLGSAFELSYDQKKAPLRLQ
On to B1, for which the “transfected T98G cells undergoing apoptosis (TUNEL)” value in the data set on T98G cells was “more than half”. The “down-regulation of mitochondrial ΔΨm with bcl-2 overexpression” value in the data set on mitochondrial ΔΨm [7] was “blocked”. In the data set with mitochondrial ΔΨm [4], the “down-regulation of mitochondrial ΔΨm” value was “down-regulated”. Besides, in the data set with mitochondrial ΔΨm [8], the “dissipation of mitochondrial ΔΨm” value is “Almost all cells”.

B2: p53AIP1: p53-regulated Apoptosis Inducing Protein 1, exogenous expression by adenovirus-mediated gene transfer (protein)
chain: B1 chain
modifications: left off: small tags and cut ends
notes: p53-regulated Apoptosis Inducing Protein 1, exogenous expression by adenovirus-mediated gene transfer
As to B2, the “induction of apoptosis in WTp53 cancer cell lines” value with WTp53 cancer cell lines (nine lines tested, adenovirus-mediated gene transfer, 96 hr) is “effectively induced apoptosis in six of the WTp53 cancer cell lines”. The “cell killing compared with p53” value in the data set with WTp53 cancer cell lines (the six responsive WTp53 lines) is reported as “four of the six cell lines were killed more effectively”.
